Assay results as given in patent publication US6043285A, “Use of p-aminophenol derivatives for the preparation of pharmaceutical compositions useful in the treatment of neurodegenerative diseases” (Angelini Ricerche S.p.A. Societa'Consortile, priority 1996, dated 2000).
Where two headings read alike, the source gives them in different places.

Experiments:
[1] = test system: factor 3 of the complement (C3) production in T98G cell line; assay: Complement factor C3 secretion in the T98G cell line; assay type: cell-based, human; conditions: for reducing secretion of factors of the complement (in words): T98G cells
Experimental: The effect of paracetamol on the production of complement factors has been studied using the human glioblastoma T98G cell line. The said line is in fact capable of constitutively producing factor 3 of the complement (C3) and this synthesis is further increased in the presence of various stimuli such as interleukin-1 beta (IL-1β). Indomethacin has been used as the reference drug.
(§1) The cells (2×10^6 /ml) were incubated for 48 hours in the presence of increasing concentrations of paracetamol (10-100-500-1000 μM) or indomethacin (0, 1-1-10 μM) both in the presence and in the absence of IL-1β (50 U/ml). On completion of incubation, the culture medium was harvested and the quantity of C3 secreted by the cells in the various conditions was measured. C3 was assayed in a sandwich-type immunoenzymatic test, in which two anti-C3 antibodies of different species were used as well as an antiserum labeled with an alkaline phosphatase specific for one of the two anti-C3 antibodies. The secreted C3 was quantified using a standard curve prepared on the basis of purified C3.

[2] = test system: E2 prostaglandins production in T98G cell line; assay: Prostaglandin E2 production in the T98G cell line stimulated with IL-1β; assay type: cell-based, human; conditions: IL-1β stimulated
Experimental: as §1
(§2) Parallel experiments were conducted in which the ability of paracetamol and indomethacin to inhibit the production of prostaglandins produced by the glioblastoma T98G cell line or by the J774.2 cellular macrophagic cell line was assessed.
The test with T98G cells stimulated with IL-1β was conducted as described in the previous Example 1. At the end of incubation the culture medium was harvested and the quantity of E2 prostaglandins present was measured. The prostaglandins were assayed by means of a commercially available immunoenzymatic test ([…]).

[3] = test system: interleukin-6 (IL-6) production in T98G cell line; assay: IL-6 production in the T98G cell line stimulated with β-amyloid; assay type: cell-based, human
Experimental: The effect of paracetamol on the production of IL-6 was studied using the human cell line glioblastoma T98G. The said line is in fact capable of constitutively producing IL-6 and this synthesis is augmented in the presence of aggregated β-amyloid. Indomethacin was used as the reference drug.
The cells (2×10^6 /ml) were incubated for 48 hours in the presence of increasing concentrations of paracetamol (10-1000 μM) or indomethacin (0.1-10 μM) in the presence of β-amyloid (50 μM) aggregated by incubation at 37° C. for 6 days. At the end of the experiment the culture medium was harvested and the quantity of IL-6 produced in the various conditions was assayed using a commercial immunoenzymatic kit (Biotrak IL-6, Amersham, UK).

[4] = test system: prostaglandin E2 production in J774.2 macrophagic cells; assay: Prostaglandin E2 production in the J774.2 macrophagic cell line stimulated with LPS; assay type: cell-based
Experimental: as §2
Parallel to the above experiment, J774.2 (2×10^6 /ml) macrophagic cells were stimulated with lipopolysaccharide (LPS) (1 μg/ml) for 12 hours. After 3 washes with physiological solution, the cells were incubated for 45 minutes together with increasing concentrations of paracetamol (0.1-100 μM) or indomethacin (0.01-1 μM). At the end of incubation the supernatants were harvested and the prostaglandin E2 content was measured using the previously described test.

[5] = test system: patients suffering from Alzheimer's disease; conditions: 44 patients, 6 months, in comparison with placebo; cited from earlier work
[6] = test system: T98G cell line; assay: Toxicity in the T98G cellular system; assay type: cell-based, human; conditions: concentration above 10 μM not possible
[7] = test system: onset of the Alzheimer disease; conditions: retrospective, subjects treated for pain and fever; cited from earlier work
[8] = test system: T98G and J774.2 cell lines; assay: Selectivity of action on the nervous system (Tables 1 to 4 as a whole); assay type: cell-based; conditions: contrary to indomethacin
Experimental: as §2

[9] = low therapeutic doses from 0.5 to 1 g, 3 or 4 times a day; cited from earlier work
[10] = test system: peripheral cycloxygenase; conditions: cited from earlier work
[11] = cited from earlier work
[12] = Homo sapiens, T98G, 48 h, read-out: Inhibition % of production of complement (C3)
[13] = Homo sapiens, T98G, 48 h, read-out: Inhibition % of production of IL-6
[14] = Mus musculus, J774.2, 0.75 h, read-out: Inhibition % of production of prostaglandins
[15] = Homo sapiens, T98G, 48 h, IL-1β stimulated (50 U/ml)
[16] = Homo sapiens, T98G, 48 h, not stimulated with IL-1β

COc1ccc2c(c1)c(CC(=O)O)c(C)n2C(=O)c1ccc(Cl)cc1 [Indomethacin]
inhibition at 0.1 µM [1, 12]: 26.9% | inhibition at 1 µM [1, 12]: 21.7% | inhibition at 10 µM [1, 12]: 35.1% | inhibition at 10 µM ([1]; Homo sapiens, T98G, read-out: inhibiting activity on secretion of the complement): 35% | reducing secretion of factors of the complement (in words) [1]: active in reducing the secretion of the complement | reducing secretion of factors of the complement (in words) ([1]; listed as indomethacin): capable of reducing secretion of factors of the complement | inhibition at 0.1 µM ([2]; Homo sapiens, 0.1 μM): 99.3% | inhibition at 1 µM ([2]; Homo sapiens, 1 μM): 98.4% | inhibition at 10 µM ([2]; Homo sapiens): 99.1% | inhibiting production of prostaglandins in glial cells (in words) [2]: capable of inhibiting production of prostaglandins in the glial cells of the central nervous system in a significant manner | inhibition at 0.1 µM [3, 13]: 21.1% | inhibition at 1 µM [3, 13]: 17.6% | inhibition at 10 µM [3, 13]: 11.5% | inhibition at 0.01 µM [4, 14]: 35.8% | inhibition at 0.1 µM [4, 14]: 61.1% | inhibition at 1 µM [4, 14]: 87.4% | progression of dementia [5]: notable slowing of the progression of dementia | toxicity in the cellular system used [6]: because of its toxicity in the cellular system used, it was not possible to increase its concentration above 10 μM

CC(=O)Nc1ccc(O)cc1 [Paracetamol, N-acetyl-p-aminophenol]
inhibition at 100 µM ([1]; Homo sapiens, T98G, 48 h, IL-1β stimulated (50 U/ml), 100 μM): 23.6% | inhibition at 500 µM [1, 15]: 39.8% | inhibition at 1000 µM [1, 15]: 47.5% | inhibition at 10 µM ([1]; Homo sapiens, T98G, 48 h, IL-1β stimulated (50 U/ml), 48 hours, 10 μM, read-out: Inhibition % of production of complement (C3)): 0.1% | inhibition at 500 µM [1, 16]: 37.4% | inhibition at 1000 µM [1, 16]: 60.8% | IC50 ([1]; Homo sapiens, T98G, cells stimulated with interleukin-1 beta, read-out: Cl50 for secretion of C3): ~1000 µM | reducing secretion of factors of the complement (in words) [1]: capable of reducing secretion of factors of the complement | inhibition at 10 µM ([2]; Homo sapiens): 26.7% | inhibition at 100 µM ([2]; Homo sapiens, 100 μM): 88.5% | inhibition at 500 µM ([2]; Homo sapiens, 500 μM): 96.9% | inhibition at 1000 µM ([2]; Homo sapiens, 1000 μM): 99% | inhibiting production of prostaglandins in glial cells (in words) [2]: capable of inhibiting production of prostaglandins in the glial cells of the central nervous system in a significant manner | delay in the onset of the Alzheimer disease [7]: negative | selectivity of action on the nervous system [8]: peculiar selectivity of action on the nervous system | side effects [9]: no significant side effects | tolerability [9]: well tolerated | action on peripheral cycloxygenase [10]: absence of action on peripheral cycloxygenase | inhibition at 10 µM ([3]; Homo sapiens, T98G, β-amyloid stimulated (50 μM), 48 hours, 10 μM, read-out: Inhibition % of production of IL-6): 11.4% | inhibition at 100 µM ([3]; Homo sapiens, T98G, β-amyloid stimulated (50 μM), 48 hours, 100 μM): 6.7% | inhibition at 500 µM ([3]; Homo sapiens, T98G, β-amyloid stimulated (50 μM), 48 hours, 500 μM): 20.5% | inhibition at 1000 µM ([3]; Homo sapiens, T98G, β-amyloid stimulated (50 μM), 48 hours, 1000 μM): 41.2% | IC50 ([3]; Homo sapiens, T98G, β-amyloid stimulated, read-out: Cl50 for production of IL-6): > 1000 µM | reducing the secretion of IL-6 (in words) ([3]; in the presence of β-amyloid): capable of reducing the secretion of IL-6 | inhibiting activity on production of prostaglandins in macrophages (in words) ([4]; J774.2, LPS stimulated): little inhibiting activity on production of prostaglandins in macrophages | inhibition at 0.1 µM ([4]; Mus musculus, 0.75 h, J774.2, LPS stimulated (1 μg/ml), 45 minutes, 0.1 μM, read-out: Inhibition % of production of prostaglandins): 5.3% | inhibition at 1 µM ([4]; Mus musculus, 0.75 h, J774.2, LPS stimulated (1 μg/ml), 45 minutes, 1 μM, read-out: Inhibition % of production of prostaglandins): 6.4% | inhibition at 10 µM ([4]; Mus musculus, 0.75 h, J774.2, LPS stimulated (1 μg/ml), 45 minutes, 10 μM, read-out: Inhibition % of production of prostaglandins): 12.5% | inhibition at 100 µM ([4]; Mus musculus, 0.75 h, J774.2, LPS stimulated (1 μg/ml), 45 minutes, 100 μM, read-out: Inhibition % of production of prostaglandins): 11.4% | plasma concentration ([11]; after 6 hours, oral administration of 1 g): approximately 1.5 mg/l | tissue distribution ([11]; in words, including the brain): distributed evenly throughout the major part of the tissues of the organism, including the brain | absorption ([11]; in words): rapidly absorbed | tissue concentration relative to plasma ([11]; oral administration): substantially the same as the plasma concentration | plasma concentration ([11]; within a few minutes of oral administration of 1 g): approximately 10 mg/l | concentration ([11]; within a few minutes of oral administration of 1 g, read-out: plasma concentration): ~66.2 µM
